# Patent publication US8883841B2, “Oncogenic ras-specific cytotoxic compound and methods of use thereof” (The Board of Regents of the University of Texas System, priority 2005, dated 2014)
# Read-outs that look alike come from different tables or passages of the source.
# How the values were obtained:
# Ovcar443 = assay: Cell viability, Ovcar443 ovary cancer cells; assay type: cell-based
# SKOV3 = assay: Cell viability, SKOV3 ovary cancer cells; assay type: cell-based; conditions: Homo sapiens, SK-OV-3
# MOLT-4 = assay: NCI in-vitro testing, MOLT-4 (Leukemia)
# HT29 = assay: NCI in-vitro testing, HT29 (Colon Cancer)
# SF-268 = assay: NCI in-vitro testing, SF-268 (CNS Cancer)
# SK-MEL-5 = assay: NCI in-vitro testing, SK-MEL-5 (Melanoma)
# RPMI-8226 = assay: NCI in-vitro testing, RPMI-8226 (Leukemia)
# TK-10 = assay: NCI in-vitro testing, TK-10 (Renal Cancer)
# MDA-MB-435 = assay: NCI in-vitro testing, MDA-MB-435 (Breast Cancer)
# MDA-MB-231/ATCC = assay: NCI in-vitro testing, MDA-MB-231/ATCC (Breast Cancer)
# NCI-H460 = assay: NCI in-vitro testing, NCI-H460 (Non-Small Cell Lung Cancer)
compound,measurement,setting,value
"OCc1cn(Cc2ccc(Cl)cc2)c2ccccc12 [Oncrasin K060, 1H-Indole-3-methanol, 1-[(4-chlorophenyl)methyl]-]",IC50,Ovcar443,2.51 µM
same,IC50,SKOV3,0.631 µM
same,GI50,"MOLT-4; Homo sapiens, MOLT-4",17.7 µM
same,CC50,"MOLT-4; Homo sapiens, MOLT-4, read-out: LC50",82.8 µM
same,GI50,"MOLT-4; Homo sapiens, MOLT-4, read-out: Log10 GI50 (converted)",17.8 µM
same,TGI,MOLT-4; MOLT-4,3.82E−5 Molar
same,Percent Growth,"MOLT-4; MOLT-4, Log10 Concentration −4.0 Molar",−62%
same,Percent Growth,"MOLT-4; MOLT-4, Log10 Concentration −5.0 Molar",87%
same,Percent Growth,"MOLT-4; MOLT-4, Log10 Concentration −6.0 Molar",109%
same,Percent Growth,"MOLT-4; MOLT-4, Log10 Concentration −7.0 Molar",102%
same,Percent Growth,"MOLT-4; MOLT-4, Log10 Concentration −8.0 Molar",114%
same,TGI,HT29; HT20,2.01E−6 Molar
same,Percent Growth,"HT29; HT20, Log10 Concentration −4.0 (Molar)",−66%
same,Percent Growth,"HT29; HT20, Log10 Concentration −5.0 (Molar)",29%
same,Percent Growth,"HT29; HT20, Log10 Concentration −6.0 (Molar)",68%
same,Percent Growth,"HT29; HT20, Log10 Concentration −7.0 (Molar)",79%
same,Percent Growth,"HT29; HT20, Log10 Concentration −8.0 (Molar)",103%
same,GI50,HT29; Homo sapiens,1.83 µM
same,GI50,"HT29; Homo sapiens, HT-29, read-out: Log10 GI50 (converted)",1.82 µM
same,CC50,"HT29; Homo sapiens, read-out: LC50",67.6 µM
same,GI50,"SF-268; Homo sapiens, SF-268",12.4 µM
same,CC50,"SF-268; Homo sapiens, SF-268, read-out: LC50",> 100 µM
same,GI50,"SF-268; Homo sapiens, SF-268, read-out: Log10 GI50 (converted)",12.3 µM
same,TGI,SF-268; SF-268,4.58E−5 Molar
same,Percent Growth,"SF-268; SF-268, Log10 Concentration −4.0 Molar",−30%
same,Percent Growth,"SF-268; SF-268, Log10 Concentration −5.0 Molar",56%
same,Percent Growth,"SF-268; SF-268, Log10 Concentration −6.0 Molar",94%
same,Percent Growth,"SF-268; SF-268, Log10 Concentration −7.0 Molar",98%
same,Percent Growth,"SF-268; SF-268, Log10 Concentration −8.0 Molar",106%
same,GI50,"SK-MEL-5; Homo sapiens, SK-MEL-5",4.97 µM
same,CC50,"SK-MEL-5; Homo sapiens, SK-MEL-5, read-out: LC50",45.5 µM
same,GI50,"SK-MEL-5; Homo sapiens, SK-MEL-5, read-out: Log10 GI50 (converted)",5.01 µM
same,TGI,SK-MEL-5; SK-MEL-5,1.95E−5 Molar
same,Percent Growth,"SK-MEL-5; SK-MEL-5, Log10 Concentration −4.0 Molar",−97%
same,Percent Growth,"SK-MEL-5; SK-MEL-5, Log10 Concentration −5.0 Molar",40%
same,Percent Growth,"SK-MEL-5; SK-MEL-5, Log10 Concentration −6.0 Molar",74%
same,Percent Growth,"SK-MEL-5; SK-MEL-5, Log10 Concentration −7.0 Molar",92%
same,Percent Growth,"SK-MEL-5; SK-MEL-5, Log10 Concentration −8.0 Molar",95%
same,GI50,"RPMI-8226; Homo sapiens, RPMI-8226",0.372 µM
same,CC50,"RPMI-8226; Homo sapiens, RPMI-8226, read-out: LC50",> 100 µM
same,GI50,"RPMI-8226; Homo sapiens, RPMI-8226, read-out: Log10 GI50 (converted)",0.372 µM
same,TGI,RPMI-8226; RPMI-8226,3.19E−6 Molar
same,Percent Growth,"RPMI-8226; RPMI-8226, Log10 Concentration −4.0 Molar",−35%
same,Percent Growth,"RPMI-8226; RPMI-8226, Log10 Concentration −5.0 Molar",−23%
same,Percent Growth,"RPMI-8226; RPMI-8226, Log10 Concentration −6.0 Molar",24%
same,Percent Growth,"RPMI-8226; RPMI-8226, Log10 Concentration −7.0 Molar",85%
same,Percent Growth,"RPMI-8226; RPMI-8226, Log10 Concentration −8.0 Molar",119%
same,GI50,"TK-10; Homo sapiens, TK-10",0.0153 µM
same,CC50,"TK-10; Homo sapiens, TK-10, read-out: LC50",> 100 µM
same,GI50,"TK-10; Homo sapiens, TK-10, read-out: Log10 GI50 (converted)",0.0151 µM
same,TGI,TK-10; TK-10,8.94E−8 Molar
same,Percent Growth,"TK-10; TK-10, Log10 Concentration −4.0 Molar",−18%
same,Percent Growth,"TK-10; TK-10, Log10 Concentration −5.0 Molar",−8%
same,Percent Growth,"TK-10; TK-10, Log10 Concentration −6.0 Molar",−10%
same,Percent Growth,"TK-10; TK-10, Log10 Concentration −7.0 Molar",−3%
same,Percent Growth,"TK-10; TK-10, Log10 Concentration −8.0 Molar",82%
same,GI50,"MDA-MB-435; Homo sapiens, MDA-MB-435",19.3 µM
same,CC50,"MDA-MB-435; Homo sapiens, MDA-MB-435, read-out: LC50",> 100 µM
same,GI50,"MDA-MB-435; Homo sapiens, MDA-MB-435, read-out: Log10 GI50 (converted)",19.1 µM
same,TGI,MDA-MB-435; MDA-MB-435,5.47E−5 Molar
same,Percent Growth,"MDA-MB-435; MDA-MB-435, Log10 Concentration −4.0 Molar",−29%
same,Percent Growth,"MDA-MB-435; MDA-MB-435, Log10 Concentration −5.0 Molar",81%
same,Percent Growth,"MDA-MB-435; MDA-MB-435, Log10 Concentration −6.0 Molar",96%
same,Percent Growth,"MDA-MB-435; MDA-MB-435, Log10 Concentration −7.0 Molar",100%
same,Percent Growth,"MDA-MB-435; MDA-MB-435, Log10 Concentration −8.0 Molar",102%
same,GI50,"MDA-MB-231/ATCC; Homo sapiens, MDA-MB-231",11 µM
same,CC50,"MDA-MB-231/ATCC; Homo sapiens, MDA-MB-231, read-out: LC50",> 100 µM
same,GI50,"MDA-MB-231/ATCC; Homo sapiens, MDA-MB-231, read-out: Log10 GI50 (converted)",11 µM
same,TGI,MDA-MB-231/ATCC; MDA-MB-231/ATCC,4.23E−5 Molar
same,Percent Growth,"MDA-MB-231/ATCC; MDA-MB-231/ATCC, Log10 Concentration −4.0 Molar",−32%
same,Percent Growth,"MDA-MB-231/ATCC; MDA-MB-231/ATCC, Log10 Concentration −5.0 Molar",53%
same,Percent Growth,"MDA-MB-231/ATCC; MDA-MB-231/ATCC, Log10 Concentration −6.0 Molar",109%
same,Percent Growth,"MDA-MB-231/ATCC; MDA-MB-231/ATCC, Log10 Concentration −7.0 Molar",120%
same,Percent Growth,"MDA-MB-231/ATCC; MDA-MB-231/ATCC, Log10 Concentration −8.0 Molar",105%
same,TGI,NCI-H460,3.79E−5 Molar
same,GI50,"NCI-H460; Homo sapiens, NCI-H460",0.0888 µM
same,CC50,"NCI-H460; Homo sapiens, NCI-H460, read-out: LC50",> 100 µM
same,GI50,"NCI-H460; Homo sapiens, NCI-H460, read-out: Log10 GI50 (converted)",0.0891 µM
same,Percent Growth,NCI-H460; Log10 Concentration −4.0 Molar,−9%
same,Percent Growth,NCI-H460; Log10 Concentration −5.0 Molar,13%
same,Percent Growth,NCI-H460; Log10 Concentration −6.0 Molar,20%
same,Percent Growth,NCI-H460; Log10 Concentration −7.0 Molar,48%
same,Percent Growth,NCI-H460; Log10 Concentration −8.0 Molar,79%
